According to patent publication US12161650B2, “Pharmaceutical compositions comprising a ryanodine receptor modulator and uses thereof” (priority 2021, dated 2024):
Where two headings read alike, the source gives them in different places.

Legend:
Assay type in all cases: in vivo, human (healthy male volunteers)
[1] = Phase 1 clinical trial, Part II, muscle biopsy: concentration in quadriceps muscle; conditions: for Kp (total muscle concentration divided by plasma concentration) / Kp: muscle Day 13 / plasma Day 14 at 3 hours post dose, geom. mean (geom. % CV); for Kp: quadriceps muscle / plasma, read-out: Kpu (unbound muscle concentration divided by plasma concentration)
Experimental: For Study part II (for all groups), Concentrations of Compound I were determined in muscle by performing muscle biopsy on quadriceps muscle on day 13, at least 3 hours after morning dose. Plasma and muscle samples were analyzed by LC-MS/MS method. Muscle biopsy was performed to assess the concentration of Compound I in quadriceps muscle. The biopsy was performed on Day 13 at 3 hours post dose at least. Table 9 summarizes the ratios of unbound respective total concentration at Day 13 at 3 hours post dose divided by the plasma concentration on Day 14 at 3 hours post dose.

[2] = Phase 1 clinical trial, Part I single ascending doses, plasma pharmacokinetics; conditions: for Tmax / AUC(0-t) / Cmax / AUC / half-life: male, human, plasma; for AUC(0-t) / Cmax: Day 1, geom. mean; for AUC: Day 1, zero to infinity; for AUC / half-life: geom. mean; for half-life: read-out: t1/2, z (converted)
Experimental: (§1) A Phase 1, randomized, double-blind, placebo-controlled clinical trial was performed to assess the safety and pharmacokinetics (PK) of Compound I after single, escalating, and repeated oral doses in health male volunteers.
(§2) 4-[(7-methoxy-2,3-dihydro-1,4-benzothiazepin-4(5H)yl)methyl]benzoic acid hemi-fumarate (Compound I) was administered in a gastro-resistant tablet according to Example 1. The formulation contained 20 mg, 40 mg, or 200 mg Compound I (based on the mass of 4-[(7-methoxy-2,3-dihydro-1,4-benzothiazepin-4(5H)yl)methyl]benzoic acid). Placebo tablet according to Example 4 was used as comparator.
[…] Forty subjects completed part I: 30 active (6 per cohort) and 10 placebo.
In Part I, blood samples were collected from each participant as follows: at pre-dose, then 0.25, 0.5, 1, 1.5, 2, 3, 4, 5, 6, 8, 10, 12, 16, 24, 36, 48, 60, 72, and 96 hours after dosing.
(§3) The area under the plasma concentration-time curve was calculated using a combined linear and logarithmic trapezoidal rule. The interpolation was linear in the constant and ascending parts of the plasma concentration-time profiles. The interpolation was logarithmic in the descending parts.
For Part I, to assess the dose effect on the PK of Compound I, the mean AUClast, and Cmax for each dose were calculated and were plotted by dose.
(§4) For each group and treatment, descriptive statistics (N, arithmetic mean, standard deviation, minimum, median, maximum, coefficient of variation, geometric mean, and geometric CV, as appropriate) were calculated for the concentrations and pharmacokinetic parameters of Compound I.
(§5) Plasma and muscle samples were analyzed by LC-MS/MS method.

[3] = Phase 1 clinical trial, safety of single and repeated oral doses
Experimental: as §1
(§6) The primary objective was to assess the safety of escalating single oral doses of Compound I compared with placebo in healthy male volunteers. The secondary objective was to measure plasma pharmacokinetic (PK) parameters of Compound I.
as §6, with “repeated” for “single”, “I over 14 days” for “I”, “I and to assess the concentration of Compound I in quadriceps muscle.” for “I.”

[4] = Phase 1 clinical trial, Part II multiple ascending doses over 14 days, plasma pharmacokinetics; conditions: for Cmax / Tmax / AUC(0-t) / AUC / half-life: male, human, plasma; for AUC(0-t): read-out: AUC0-24
Experimental: as §1, §2
In Part II, participants from groups I, J, K, and L received repeated doses of 20 mg, 60 mg, 120 mg, or 240 mg Compound I, respectively, or corresponding placebo once daily over a period of 14 days. Forty-one subjects completed Part II: 7/7/8/7 for cohorts I, J, K, L, and twelve placebo.
In Part II, blood samples were collected from each participant as follows: Day 1: 12 samples from the pre-morning dose up to 16 h (pre-dose, 0.25, 0.5, 1, 1.5, 2, 3, 4, 6, 8, 12, and 16 h), Days 2-13: 12 samples at pre-doses (i.e., morning dose); Day 14: 16 samples from the pre-morning dose up to 96 (D14 pre-dose, 0.25, 0.5, 1, 1.5, 2, 3, 4, 6, 8, 12, and 16 h and D15-18: 1 sample before theoretical morning dosing.
as §3
For Part II, the same approach was used on AUCτ (Day 14) respectively AUC24 (Day 1), and Cmax.
as §4, §5

[5] = geometric means across dose groups 20-240 mg, 14-day repeated administration

## COc1ccc2c(c1)CN(Cc1ccc(C(=O)O)cc1)CCS2.O=C(O)/C=C/C(=O)O [Compound I, 4-[(7-methoxy-2,3-dihydro-1,4-benzothiazepin-4(5H)yl)methyl]benzoic acid hemifumarate]
[1]; 20 mg once daily
  Kp (total muscle concentration divided by plasma concentration): 0.0808 (65.3) (ng/g)/(ng/ml)
[1]; 60 mg once daily
  Kp (total muscle concentration divided by plasma concentration): 0.0640 (22.6) (ng/g)/(ng/ml)
[1]; 120 mg once daily
  Kp (total muscle concentration divided by plasma concentration): 0.0636 (49.9) (ng/g)/(ng/ml)
[1]; 240 mg once daily
  Kp (total muscle concentration divided by plasma concentration): 0.0440 (30.0) (ng/g)/(ng/ml)
[1]; 20-240 mg once daily
  Dose proportionality of median unbound and total concentrations in quadriceps muscle: appeared dose proportional
[1]; dose range 20-240 mg
  Kp, range of geometric mean ratios across doses: 0.04-0.08 (ng/g)/(ng/mL)
[1]; male, human, quadriceps muscle (unbound) / plasma, oral, dose range 20-240 mg, read-out: Kpu, range of geometric mean ratios across doses
  Kp at 3 h: 0.0081 to 0.0106
[1]; male, human, oral, 20 mg once daily
  Kp: 0.0106
[1]; male, human, oral, 60 mg once daily
  Kp: 0.01
[1]; male, human, oral, 120 mg once daily
  Kp: 0.0081
[1]; male, human, oral, 240 mg once daily
  Kp: 0.0081
[2]; single oral administration at 20 to 400 mg, across doses, read-out: median Tmax
  Tmax: 3 to 4.5 h
[2]; single oral dose 40 mg (Treatment A, n = 6)
  AUC(0-t): 68.7 µg·h/mL
[2]; single oral dose 40 mg
  Cmax: 3940 ng/mL
  AUC: 71.7 µg·h/mL
  half-life: 20.9 h
[2]; single oral dose 40 mg, Day 1, median, read-out: tmax
  Tmax: 3 h
[2]; single oral dose 80 mg (Treatment B, n = 6)
  AUC(0-t): 153 µg·h/mL
[2]; single oral dose 80 mg
  Cmax: 6880 ng/mL
  AUC: 163 µg·h/mL
  half-life: 22.7 h
[2]; single oral dose 80 mg, Day 1, median, read-out: tmax
  Tmax: 3 h
[2]; single oral dose 160 mg (Treatment C, n = 6)
  AUC(0-t): 304 µg·h/mL
[2]; single oral dose 160 mg
  Cmax: 15500 ng/mL
  AUC: 312 µg·h/mL
  half-life: 17.5 h
[2]; single oral dose 160 mg, Day 1, median, read-out: tmax
  Tmax: 3 h
[2]; single oral dose 240 mg (Treatment D, n = 6)
  AUC(0-t): 451 µg·h/mL
[2]; single oral dose 240 mg
  Cmax: 24500 ng/mL
  AUC: 464 µg·h/mL
  half-life: 17.7 h
[2]; single oral dose 240 mg, Day 1, median, read-out: tmax
  Tmax: 4.5 h
[2]; single oral dose 400 mg (Treatment E, n = 6)
  AUC(0-t): 656 µg·h/mL
[2]; single oral dose 400 mg
  Cmax: 35100 ng/mL
  AUC: 708 µg·h/mL
  half-life: 18.7 h
[2]; single oral dose 400 mg, Day 1, median, read-out: tmax
  Tmax: 3.5 h
[2]; single oral administration at 20 to 400 mg
  Tlag: less than 2 hours
[2]; single oral administration of 20, 40, 80, 160, 240, and 400 mg, after a lag time
  Absorption: rapid absorption was observed
[2]; single oral doses
  Non-linearity with the dose: No evidence of non-linearity with the dose was observed
[2]; single oral doses, graphical inspections
  Dose proportionality with regard to AUClast and Cmax: dose proportionality
[3]; at the doses and dose regimens tested
  Tolerability: well tolerated
[3]; single doses up to 400 mg and repeated doses up to 240 mg/d for 14 days
  Serious adverse events: No serious adverse events were reported
[4]; 240 mg cohort
  Day at which steady-state was attained: 5 days
[4]; 20, 60, and 120 mg cohorts
  Day at which steady-state was attained: 4 days
[4]; daily treatment, across cohorts
  Time to steady-state: 3 to 7 days
[4]; [5]
  Accumulation ratio based on AUC: 1.4-1.8
  Accumulation ratio based on Cmax: 1.4-1.8
[4]; oral, 20 mg, 20 mg once daily, Day 1, geom. mean (geom. % CV), n = 8
  Cmax: 2200 ng/mL
[4]; oral, 20 mg, 20 mg once daily, Day 1, median (range), n = 8, read-out: tmax
  Tmax: 2.52 h
[4]; oral, 20 mg, 20 mg once daily, Day 14, geom. mean
  Cmax: 3110 ng/mL
[4]; oral, 20 mg, 20 mg once daily, Day 14, median, read-out: tmax
  Tmax: 3 h
[4]; oral, 60 mg, 60 mg once daily, Day 1, geom. mean
  Cmax: 6090 ng/mL
[4]; oral, 60 mg, 60 mg once daily, Day 1, median, read-out: tmax
  Tmax: 3 h
[4]; oral, 60 mg, 60 mg once daily, Day 14, geom. mean
  Cmax: 8840 ng/mL
[4]; oral, 60 mg, 60 mg once daily, Day 14, median, read-out: tmax
  Tmax: 1.45 h
[4]; oral, 120 mg, 120 mg once daily, Day 1, geom. mean
  Cmax: 11500 ng/mL
[4]; oral, 120 mg, 120 mg once daily, Day 1, median, read-out: tmax
  Tmax: 3 h
[4]; oral, 120 mg, 120 mg once daily, Day 14, geom. mean
  Cmax: 16300 ng/mL
[4]; oral, 120 mg, 120 mg once daily, Day 14, median, read-out: tmax
  Tmax: 3.5 h
[4]; oral, 240 mg, 240 mg once daily, Day 1, geom. mean
  Cmax: 23900 ng/mL
[4]; oral, 240 mg, 240 mg once daily, Day 1, median, read-out: tmax
  Tmax: 3 h
[4]; oral, 240 mg, 240 mg once daily, Day 14, geom. mean
  Cmax: 34900 ng/mL
[4]; oral, 240 mg, 240 mg once daily, Day 14, median, read-out: tmax
  Tmax: 3 h
[4]; oral, 20 mg once daily (Treatment I), Day 1, geom. mean, n = 7
  AUC(0-t): 24.3 µg·h/mL
[4]; oral, 20 mg once daily, Day 14, geom. mean
  AUC: 40.1 µg·h/mL
[4]; oral, 20 mg once daily, Day 14, geom. mean, read-out: t1/2, z (converted)
  half-life: 19.3 h
[4]; oral, 60 mg once daily (Treatment J, n = 7), Day 1, geom. mean
  AUC(0-t): 69.2 µg·h/mL
[4]; oral, 60 mg once daily, Day 14, geom. mean
  AUC: 115 µg·h/mL
[4]; oral, 60 mg once daily, Day 14, geom. mean, read-out: t1/2, z (converted)
  half-life: 19.7 h
[4]; oral, 120 mg once daily (Treatment K, n = 8), Day 1, geom. mean
  AUC(0-t): 138 µg·h/mL
[4]; oral, 120 mg once daily, Day 14, geom. mean
  AUC: 221 µg·h/mL
[4]; oral, 120 mg once daily, Day 14, geom. mean, read-out: t1/2, z (converted)
  half-life: 19.3 h
[4]; oral, 240 mg once daily (Treatment L, n = 7), Day 1, geom. mean
  AUC(0-t): 270 µg·h/mL
[4]; oral, 240 mg once daily, Day 14, geom. mean
  AUC: 465 µg·h/mL
[4]; oral, 240 mg once daily, Day 14, geom. mean, read-out: t1/2, z (converted)
  half-life: 19.8 h
[4]; oral, based on the results of the single and repeat dose studies, read-out: Mean apparent terminal half-life (converted)
  half-life: ~20 h
[4]; po, after 14-days of repeated once daily oral administrations, across cohorts, read-out: median Tmax
  Tmax: 3 to 4 h
[4]; repeated doses, graphical inspections
  Dose proportionality regarding AUCτ resp. AUC0-24 and Cmax: dose proportionality
[4]; repeated oral administrations at 20, 60, 120, and 240 mg/d
  Non-linearity with the time and dose: No evidence of non-linearity with the time and dose was observed
